In patent US10981926B2 (Janssen Pharmaceutica NV, priority 2016, dated 2021):

Columns and labels:
[1] = biological target: F876L mutant Androgen Receptor (AR-F876L) (Homo sapiens (Human), UniProt P10275, F877L); assay: LNCaP-AR-F876L ANT reporter assay (antagonist mode); assay type: cell-based
LNCaP SRαF876L cells = assay: Castrate Resistant Prostate Cancer Xenograft Study; assay type: in vivo, mouse; conditions: castrate SHO mice
Procedure: Castrate six to seven week old male SCID Hairless Outbred mice (SHO, Charles Rivers Laboratories) were used as the host strain for xenograft studies. LNCaP SRαF876L cells were cultured as 3-D spheroids and expanded prior to subcutaneous injection on the flank of the animals (supplied post castration). Briefly, 5 mls of cells in media+5 mls of cultrex were premixed prior to plating of 500 μl=2×10^5 cells per well of a 24-well plate. Plates were incubated @ 37° C. for 30 min before addition of complete media on top and returned to incubator for growth of 3-D colonies. After 7 days, media was removed, plates chilled and contents of each well, 500 μl cultrex and cells, injected into flank of a recipient mouse. Tumor volume (length×width2/2) was monitored weekly. When tumors reached an average volume of ˜200 mm^3, animals were randomized into treatment groups. During the treatment period tumor volume was monitored bi-weekly. At study end, tumor growth inhibition (TGI) was calculated: 100−(Treated/Control*100). At the termination of study tumors were collected and stored for further analyses.

LNCaP WT = assay: LNCaP Proliferation Assay (LNCaP WT); assay type: cell-based; conditions: Homo sapiens, 96 h, 4 days, CellTiter-Glo, normalized to 0.1 nM R1881 stimulation
Procedure: (§1) LNCaP cells were expanded in RPMI 10% FBS in T150 flasks. The cells were dislodged with 0.25% Trypsin, washed in complete media, centrifuged (300 g, 3 min), and the supernatant aspirated. The cells were resuspended in RPMI phenol-red free media with 1% charcoal-stripped serum (CSS) and counted using a ViCELL (Beckman-Coulter). 7500 cells were added to each well of a white optical bottom 384-well plate and incubated for 2 days at 37° C. 5% CO2. Compound dilutions were prepared in RPMI CSS using 50 mM stock solutions and added to the cells either alone (agonist mode) or in combination with 0.1 nM R1881 (antagonist mode). The plates were incubated for 4 days, followed by addition of CellTiter-Glo Luminescent Cell Viability kit reagent (Promega). The plates were placed on a shaker at 3000 rpm for 10 minutes and then read on an EnVision plate reader (Perkin Elmer) using Luminescence assay default settings. The data was analyzed, normalized to 0.1 nM R1881 stimulation, and plotted in GraphPad Prism.

LNCaP F876L = assay: LNCaP Proliferation Assay (LNCaP F876L); assay type: cell-based; conditions: Homo sapiens, 96 h, 4 days, CellTiter-Glo, normalized to 0.1 nM R1881 stimulation
Procedure: as §1

AR-VP16 = AR-VP16 (Homo sapiens, UniProt P10275); assay: AR-VP16 DNA Binding Assay (VP16 WT); assay type: cell-based; conditions: HepG2, antagonist mode, 90 pM R1881, 48 hours
Procedure: HepG2 cells were maintained in EMEM supplemented with 10% FBS. One day before transfection, the media was changed to EMEM with 10% CSS. T-150 flasks were transiently transfected using 120 μL Lipofectamine 2000 (Life Technologies), 24.5 μg AR-VP16 or F876L-VP16 (expression vector) and 49 μg 4×ARE-Luciferase (reporter vector) in OptiMEM and the flasks were incubated overnight. Cells were then trypsinized, counted and resuspended at 500,000 cells/mL. For agonist mode, the compounds were serially diluted and 50 μL of the compound was added per well. 50 μL of the cells were added to each well and incubated for 48 hours. For antagonist mode, a final concentration of 90 pM (VP16 AR) or 1 nM (VP16 F876L) R1881 was added to the plate and incubated for 48 hours. The plates were then assayed using SteadyGlo and read on the Envision. Percent Stimulation and Inhibition were determined and analyzed using GraphPad Prism.

GR (human) = GR (human) (Homo sapiens (Human), UniProt P04150); assay: Radioligand binding to GR; conditions: [3H]dexamethasone, IM-9 cells (cytosol)
Procedure: Radioligand binding assays were performed with the cell extracts and ligands as detailed below. Complete methodology is contained within the cited publications. Kd values were determined by Non-Specific Incubation Detection Method.
GR (human) (agonist radioligand) IM-9 cells (cytosol)
[^3H]dexamethasone 1.5 nM 1.5 nM triamcinolone (10 μM) 6 h 4° C. Scintillation counting (Clark, A. F et al. (1996) Invest. Ophtalmol. Vis. Sci., 37: 805-813).
The results are expressed as a percent of control specific binding measured specific binding*100 control specific binding and as a percent inhibition of control specific binding 100-(measured specific binding*100) control specific binding obtained in the presence of compound.
The IC50 values (concentration causing a half-maximal inhibition of control specific binding) and Hill coefficients (nH) were determined by non-linear regression analysis of the competition curves generated with mean replicate values using Hill equation curve fitting. Y=D+[A−D] 1+(C/C50)nH […]
The inhibition constants (Ki) were calculated using the Cheng Prusoff equation: Ki=[…]
Radioligand binding inhibition and affinity calculations were determined using [^3H]-methyltrienolone, [^3H]-dexamethasone and [^3H]-estradiol for AR, GR and ER, respectively. […]

Sequence of F876L mutant Androgen Receptor (AR-F876L) (P10275 whole entry F877L): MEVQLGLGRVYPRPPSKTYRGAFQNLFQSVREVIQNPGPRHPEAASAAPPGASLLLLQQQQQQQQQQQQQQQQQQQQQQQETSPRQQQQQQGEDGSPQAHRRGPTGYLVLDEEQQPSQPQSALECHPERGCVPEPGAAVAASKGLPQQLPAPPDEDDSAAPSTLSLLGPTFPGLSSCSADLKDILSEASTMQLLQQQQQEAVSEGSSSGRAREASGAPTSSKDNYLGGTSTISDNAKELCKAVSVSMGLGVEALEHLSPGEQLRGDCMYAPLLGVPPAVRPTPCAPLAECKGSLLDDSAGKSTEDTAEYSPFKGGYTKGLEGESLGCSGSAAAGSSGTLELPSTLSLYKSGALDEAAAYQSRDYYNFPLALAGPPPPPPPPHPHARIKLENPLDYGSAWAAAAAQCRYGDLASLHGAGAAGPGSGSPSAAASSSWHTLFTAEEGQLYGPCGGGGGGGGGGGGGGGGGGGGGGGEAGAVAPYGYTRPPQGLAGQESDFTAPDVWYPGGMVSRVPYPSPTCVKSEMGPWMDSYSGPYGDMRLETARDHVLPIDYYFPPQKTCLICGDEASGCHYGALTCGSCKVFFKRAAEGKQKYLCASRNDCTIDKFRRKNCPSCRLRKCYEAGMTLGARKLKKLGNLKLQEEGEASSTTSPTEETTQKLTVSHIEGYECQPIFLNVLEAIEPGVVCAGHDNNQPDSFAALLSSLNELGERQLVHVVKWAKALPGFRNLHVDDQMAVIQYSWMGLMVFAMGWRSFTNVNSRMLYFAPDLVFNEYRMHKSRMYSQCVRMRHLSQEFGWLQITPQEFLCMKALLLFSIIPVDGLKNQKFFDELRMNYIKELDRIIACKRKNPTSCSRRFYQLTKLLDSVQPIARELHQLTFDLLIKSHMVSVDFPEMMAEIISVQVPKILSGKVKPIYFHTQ
Sequence of GR (human) (P04150 whole entry): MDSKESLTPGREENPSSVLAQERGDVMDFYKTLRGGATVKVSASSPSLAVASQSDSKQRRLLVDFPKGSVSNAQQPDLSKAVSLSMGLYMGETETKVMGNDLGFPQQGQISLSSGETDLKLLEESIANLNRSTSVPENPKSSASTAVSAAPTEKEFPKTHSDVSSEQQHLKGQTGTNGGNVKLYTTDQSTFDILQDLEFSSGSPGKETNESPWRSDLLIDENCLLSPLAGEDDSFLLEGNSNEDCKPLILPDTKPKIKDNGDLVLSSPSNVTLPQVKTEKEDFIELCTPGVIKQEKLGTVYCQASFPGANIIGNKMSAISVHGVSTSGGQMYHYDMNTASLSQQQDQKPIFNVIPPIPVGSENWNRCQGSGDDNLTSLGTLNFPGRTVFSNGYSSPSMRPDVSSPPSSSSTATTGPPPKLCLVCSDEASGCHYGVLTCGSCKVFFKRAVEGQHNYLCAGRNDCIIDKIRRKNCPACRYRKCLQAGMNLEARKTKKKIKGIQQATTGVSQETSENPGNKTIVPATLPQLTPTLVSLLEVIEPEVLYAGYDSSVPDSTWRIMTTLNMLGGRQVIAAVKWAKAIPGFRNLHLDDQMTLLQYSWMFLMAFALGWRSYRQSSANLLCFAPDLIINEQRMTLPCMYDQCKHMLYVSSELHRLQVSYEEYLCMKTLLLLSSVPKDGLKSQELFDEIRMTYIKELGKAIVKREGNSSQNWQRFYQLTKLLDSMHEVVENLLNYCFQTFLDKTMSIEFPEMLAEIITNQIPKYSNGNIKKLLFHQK
Sequence of AR-VP16 (P10275 whole entry, looked up): as the sequence (P10275 whole entry F877L) above, with L877F counted along it

SMILES: N#Cc1ncc(N2C(=O)C3(CCC3)N(c3ccc(OC4CCNCC4)nc3)C2=S)cc1C(F)(F)F [Cpd 43, 5-[5-oxo-8-[6-(4-piperidyloxy)-3-pyridyl]-7-thioxo-6,8-diazaspiro[3.4]octan-6-yl]-3-(trifluoromethyl)pyridine-2-carbonitrile]
- LNCaP-AR-F876L ANT pIC50 ([1]; antagonist mode, pIC50 = −Log10(IC50 in Molar)): 7.43
- LNCaP-AR-F876L ANT MAX % Inh ([1]; maximum % inhibition of R1881 control response over the tested concentration range): 100.0%
- TGI (LNCaP SRαF876L cells; 30 mg/kg): 91% (n = 9)
- TGI (LNCaP SRαF876L cells; 50 mg/kg): 87% (n = 10)
- IC50 (LNCaP WT): 435 nM
- IC50 (LNCaP F876L): 197 nM
- IC50 (AR-VP16): 7750 nM
- IC50 (GR (human)): > 30000 nM
